Assay results published in PubChem BioAssay AID2060499 (Molecular Pharmacology Branch, DTP, NCI, 2025).

Tested on: 777334-354-R2-J4-PDC tumor spheroids with HUVEC/MSC, viability
Experiment: Anticancer human tumor 777334-354-R2-J4-PDC patient-derived pancreatic adenocarcinoma cell line growth inhibition [GQUAD]
Settings: for IC50: curve of first compound; for viability, T/C: stronger effect = lower value
Summary of the method: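 Multi-cell-type spheroids of tumor cells with HUVEC and mesenchymal stem cells, treated with drug combinations. Concentrations descend in half-log steps from near clinical Cmax, or from 10 microM where Cmax is unknown; viability read-out.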

[1] = second compound 0.0316 µM, first compound 0.0316 µM
[2] = second compound 0.0316 µM, first compound 0.1 µM
[3] = second compound 0.0316 µM, first compound 0.316 µM
[4] = second compound 0.0316 µM, first compound 1 µM
[5] = second compound 0.0316 µM, first compound 3.16 µM
[6] = second compound 0.0316 µM, first compound 10 µM
[7] = second compound 0.1 µM, first compound 0.0316 µM
[8] = second compound 0.1 µM, first compound 0.1 µM
[9] = second compound 0.1 µM, first compound 0.316 µM
[10] = second compound 0.1 µM, first compound 1 µM
[11] = second compound 0.1 µM, first compound 3.16 µM
[12] = second compound 0.1 µM, first compound 10 µM
[13] = second compound 0.316 µM, first compound 0.0316 µM
[14] = second compound 0.316 µM, first compound 0.1 µM
[15] = second compound 0.316 µM, first compound 0.316 µM
[16] = second compound 0.316 µM, first compound 1 µM
[17] = second compound 0.316 µM, first compound 3.16 µM
[18] = second compound 0.316 µM, first compound 10 µM
[19] = second compound 1 µM, first compound 0.0316 µM
[20] = second compound 1 µM, first compound 0.1 µM
[21] = second compound 1 µM, first compound 0.316 µM
[22] = second compound 1 µM, first compound 1 µM
[23] = second compound 1 µM, first compound 3.16 µM
[24] = second compound 1 µM, first compound 10 µM
[25] = second compound 3.16 µM, first compound 0.0316 µM
[26] = second compound 3.16 µM, first compound 0.1 µM
[27] = second compound 3.16 µM, first compound 0.316 µM
[28] = second compound 3.16 µM, first compound 1 µM
[29] = second compound 3.16 µM, first compound 3.16 µM
[30] = second compound 3.16 µM, first compound 10 µM
[31] = second compound 10 µM, first compound 0.0316 µM
[32] = second compound 10 µM, first compound 0.1 µM
[33] = second compound 10 µM, first compound 0.316 µM
[34] = second compound 10 µM, first compound 1 µM
[35] = second compound 10 µM, first compound 3.16 µM
[36] = second compound 10 µM, first compound 10 µM
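Further: spheroids exposed to compounds for 7 days before readout.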

CC1COCCN1c1cc(-c2ccnn2C)c2ccnc(-c3ccn[nH]3)c2n1 (stereo not drawn) + Cc1cnc(CNC(=O)c2c(=O)c3ccc(N4CCCN(C)CC4)nc3n3c2sc2ccccc23)cn1
IC50 (second compound 0.0316 µM): 143 nM | IC50 (second compound 0.1 µM): 240 nM | IC50 (second compound 0.316 µM): 331 nM | IC50 (second compound 1 µM): < 31.6 nM | IC50 (second compound 3.16 µM): < 31.6 nM | IC50 (second compound 10 µM): < 31.6 nM | viability, T/C [1]: 73.2% | viability, T/C [2]: 50.8% | viability, T/C [3]: 45.5% | viability, T/C [4]: 41.7% | viability, T/C [5]: 43.1% | viability, T/C [6]: 34.5% | viability, T/C [7]: 59.8% | viability, T/C [8]: 51.3% | viability, T/C [9]: 47.8% | viability, T/C [10]: 41.9% | viability, T/C [11]: 44.1% | viability, T/C [12]: 28.7% | viability, T/C [13]: 56% | viability, T/C [14]: 59.3% | viability, T/C [15]: 48.6% | viability, T/C [16]: 41.8% | viability, T/C [17]: 38.6% | viability, T/C [18]: 26.9% | viability, T/C [19]: 48.3% | viability, T/C [20]: 44.1% | viability, T/C [21]: 52.8% | viability, T/C [22]: 41.8% | viability, T/C [23]: 36.2% | viability, T/C [24]: 27.5% | viability, T/C [25]: 44.5% | viability, T/C [26]: 41% | viability, T/C [27]: 41.7% | viability, T/C [28]: 41.3% | viability, T/C [29]: 29.6% | viability, T/C [30]: 20% | viability, T/C [31]: 42.8% | viability, T/C [32]: 39.8% | viability, T/C [33]: 44.7% | viability, T/C [34]: 36.9% | viability, T/C [35]: 32.5% | viability, T/C [36]: 21.2%

COc1ncnc(C2CC2)c1-c1ncc2cnn(Cc3ccc(-c4nc(C(F)(F)F)cn4C(C)C)cc3)c2n1 + Cc1[nH]c2ccc(F)cc2c1-c1nc2c3cccnc3c3ncccc3c2[nH]1
IC50 (second compound 0.0316 µM): > 10000 nM | IC50 (second compound 0.1 µM): > 10000 nM | IC50 (second compound 0.316 µM): > 10000 nM | IC50 (second compound 1 µM): > 10000 nM | IC50 (second compound 3.16 µM): 127 nM | IC50 (second compound 10 µM): < 31.6 nM | viability, T/C [1]: 104% | viability, T/C [2]: 96.9% | viability, T/C [3]: 103% | viability, T/C [4]: 91.4% | viability, T/C [5]: 83% | viability, T/C [6]: 112% | viability, T/C [7]: 102% | viability, T/C [8]: 89.4% | viability, T/C [9]: 100% | viability, T/C [10]: 92.1% | viability, T/C [11]: 89% | viability, T/C [12]: 105% | viability, T/C [13]: 93% | viability, T/C [14]: 85% | viability, T/C [15]: 96.7% | viability, T/C [16]: 85.4% | viability, T/C [17]: 93.1% | viability, T/C [18]: 110% | viability, T/C [19]: 81.9% | viability, T/C [20]: 88.3% | viability, T/C [21]: 90.5% | viability, T/C [22]: 79.6% | viability, T/C [23]: 91% | viability, T/C [24]: 79.3% | viability, T/C [25]: 56.1% | viability, T/C [26]: 58.8% | viability, T/C [27]: 37.6% | viability, T/C [28]: 43.5% | viability, T/C [29]: 49.3% | viability, T/C [30]: 49.7% | viability, T/C [31]: 39.7% | viability, T/C [32]: 35.3% | viability, T/C [33]: 38.2% | viability, T/C [34]: 18.8% | viability, T/C [35]: 33.3% | viability, T/C [36]: 35.7%

CC[C@@]1(O)C(=O)OCc2c1cc1n(c2=O)Cc2cc3c(CN(C)C)c(O)ccc3nc2-1 + Cc1[nH]c2ccc(F)cc2c1-c1nc2c3cccnc3c3ncccc3c2[nH]1
IC50 (second compound 0.0316 µM): 218 nM | IC50 (second compound 0.1 µM): 191 nM | IC50 (second compound 0.316 µM): 200 nM | IC50 (second compound 1 µM): 124 nM | IC50 (second compound 3.16 µM): < 0.999 nM | IC50 (second compound 10 µM): < 0.999 nM | viability, T/C (second compound 0.0316 µM, first compound 0.000999 µM): 103% | viability, T/C (second compound 0.0316 µM, first compound 0.00316 µM): 102% | viability, T/C (second compound 0.0316 µM, first compound 0.00999 µM): 104% | viability, T/C [1]: 82.3% | viability, T/C (second compound 0.0316 µM, first compound 0.0999 µM): 69.6% | viability, T/C [3]: 41.3% | viability, T/C (second compound 0.1 µM, first compound 0.000999 µM): 100% | viability, T/C (second compound 0.1 µM, first compound 0.00316 µM): 97.1% | viability, T/C (second compound 0.1 µM, first compound 0.00999 µM): 111% | viability, T/C [7]: 96% | viability, T/C (second compound 0.1 µM, first compound 0.0999 µM): 61% | viability, T/C [9]: 41.5% | viability, T/C (second compound 0.316 µM, first compound 0.000999 µM): 89.5% | viability, T/C (second compound 0.316 µM, first compound 0.00316 µM): 95.5% | viability, T/C (second compound 0.316 µM, first compound 0.00999 µM): 96.4% | viability, T/C [13]: 85.5% | viability, T/C (second compound 0.316 µM, first compound 0.0999 µM): 61.7% | viability, T/C [15]: 42.4% | viability, T/C (second compound 1 µM, first compound 0.000999 µM): 79.3% | viability, T/C (second compound 1 µM, first compound 0.00316 µM): 83.6% | viability, T/C (second compound 1 µM, first compound 0.00999 µM): 85.9% | viability, T/C [19]: 83.6% | viability, T/C (second compound 1 µM, first compound 0.0999 µM): 53.9% | viability, T/C [21]: 33% | viability, T/C (second compound 3.16 µM, first compound 0.000999 µM): 34.2% | viability, T/C (second compound 3.16 µM, first compound 0.00316 µM): 41.7% | viability, T/C (second compound 3.16 µM, first compound 0.00999 µM): 35.7% | viability, T/C [25]: 28.4% | viability, T/C (second compound 3.16 µM, first compound 0.0999 µM): 15.9% | viability, T/C [27]: 14.6% | viability, T/C (second compound 10 µM, first compound 0.000999 µM): 28.4% | viability, T/C (second compound 10 µM, first compound 0.00316 µM): 38.5% | viability, T/C (second compound 10 µM, first compound 0.00999 µM): 30.7% | viability, T/C [31]: 20.2% | viability, T/C (second compound 10 µM, first compound 0.0999 µM): 13.3% | viability, T/C [33]: 11.3%

CC1COCCN1c1cc(C2(O)CC3CCC(C2)O3)c2cnn(-c3ccn[nH]3)c2n1 (stereo not drawn) + Cc1cnc(CNC(=O)c2c(=O)c3ccc(N4CCCN(C)CC4)nc3n3c2sc2ccccc23)cn1
IC50 (second compound 0.0316 µM): 128 nM | IC50 (second compound 0.1 µM): 144 nM | IC50 (second compound 0.316 µM): 158 nM | IC50 (second compound 1 µM): 130 nM | IC50 (second compound 3.16 µM): < 31.6 nM | IC50 (second compound 10 µM): < 31.6 nM | viability, T/C [1]: 62% | viability, T/C [2]: 46.6% | viability, T/C [3]: 45.6% | viability, T/C [4]: 37.3% | viability, T/C [5]: 32.6% | viability, T/C [6]: 21.5% | viability, T/C [7]: 65.9% | viability, T/C [8]: 46.5% | viability, T/C [9]: 46.4% | viability, T/C [10]: 34.8% | viability, T/C [11]: 31.9% | viability, T/C [12]: 18.4% | viability, T/C [13]: 54.1% | viability, T/C [14]: 55% | viability, T/C [15]: 46% | viability, T/C [16]: 37.1% | viability, T/C [17]: 30.6% | viability, T/C [18]: 16.5% | viability, T/C [19]: 59.7% | viability, T/C [20]: 46.1% | viability, T/C [21]: 45.6% | viability, T/C [22]: 39.7% | viability, T/C [23]: 26.4% | viability, T/C [24]: 15% | viability, T/C [25]: 40.8% | viability, T/C [26]: 46.1% | viability, T/C [27]: 46.3% | viability, T/C [28]: 34.2% | viability, T/C [29]: 21.4% | viability, T/C [30]: 14.9% | viability, T/C [31]: 46.8% | viability, T/C [32]: 42.8% | viability, T/C [33]: 39% | viability, T/C [34]: 29.6% | viability, T/C [35]: 18.7% | viability, T/C [36]: 11.2%
